Like-named read-outs stand apart in the source and are kept apart here. Marks after values point to notes of the source that are not given here.
System: human osteosarcoma DM113
Format: in vivo
Procedure: The resultant solution contains 10 mg/mL of cabazitaxel. Stock solution of cabazitaxel was then diluted in 0.9% sodium chloride.
This efficacy may be quantified, for example, as changes in tumor volume for each treated (T) and control (C) group, which are calculated for each animal and each day by subtracting the tumor volume on the day of first treatment (staging day) from the tumor volume on the specified observation day. This allows calculating the tumor growth inhibition: ΔT/ΔC=(median delta T/median delta C)×100. Individual tumor volume changes from baseline are thereafter analyzed by a non-parametric two-way ANOVA-TYPE (with factors: group and repeated days) followed by a post-hoc contrasts analysis, with Bonferroni-Holm adjustment for multiplicity, comparing all treated groups to the control group. […] A probability less than 5% (p<0.05) was considered as significant.
Based on the National Cancer Institute (NCl) standards, a ΔT/ΔC≦40% is the minimal level required to declare activity.
This efficacy may also be quantified by the number of tumor regressions observed after therapy. Individual mice reporting a tumor volume ≦50% of the Day 0 measurement for two consecutive measurements over a seven day period were considered partial responders (PR). Individual mice lacking palpable tumors (<4×4 mm^2 for two consecutive measurements over a seven day period) were classified as complete responders (CR); a CR that persisted until study completion was considered a tumor-free survivor (TFS).
Efficacy could also be determined at study completion, using tumor growth delay (T-C) in days, which is calculated using the median time to endpoint (MTTE) value for each treatment (T) group versus control (C). A Log Rank multiple comparison test with Bonferroni-Holm adjustment for multiplicity was applied on individual TTE to compare the treated groups to the control group.
The animals subjected to the experiment are subcutaneously grafted unilaterally with approximately 30 mg of a tumor fragment from low passage pediatric patient-derived tumor xenografts. The animals are implanted with a human patient-derived pediatric tumor xenografted in immuno-compromised mice (Harlan; nu/nu). Several days post tumor implantation, mice are randomized according to their tumor burden to the different groups of treatments and controls. The agents are dosed intravenously at 5.8, 9.3, 15 or 24.2 mg/kg every 4 days for a total of 3 doses (q4d×3) to mice bearing a tumor burden at start of therapy (day 0) ranged from 125 to 250 mm^3.
Beginning Day 0, animals were observed daily and weighed twice weekly using a digital scale; data including individual and mean gram weights (Mean We±SD), mean percent weight change versus Day 0 were recorded for each group. Animal deaths were recorded daily and designated as drug-related (D), technical (T), tumor related (B), or unknown (U) based on weight loss and gross observation; single agent or combination groups reporting a mean >20% for a period of 7 days and/or >10% mortality were considered above the maximum tolerated dose (MTD) for that treatment on the evaluated regimen.
The selected tumor model, DM113, was a low passage patient-derived tumor xenograft derived from an osteosarcoma taken from the lung of a patient.
The following end points were used: • Toxicity was declared at dosages inducing ≧20% body weight loss or ≧10% drug death; • Antitumor efficacy was determined by calculating the ΔT/ΔC value in percent on day 28 post treatment initiation, according to the above mentioned formula; • Individual tumor volume changes from baseline were analyzed by a non-parametric two-way ANOVA-TYPE (with factors: group and repeated day from 3 to 28) followed by a post-hoc contrasts analysis, with Bonferroni-Holm adjustment for multiplicity, comparing all treated groups to the control group on day 28. […] The volume endpoint for T-C calculations was chosen to be 1600 mm^3.

[1] = 5.8 mg/kg i.v./q4dx3, volume endpoint 1600 mm^3
[2] = 9.3 mg/kg i.v./q4dx3, volume endpoint 1600 mm^3
[3] = 15 mg/kg i.v./q4dx3, volume endpoint 1600 mm^3
[4] = 24.2 mg/kg i.v./q4dx3, volume endpoint 1600 mm^3

CC(=O)O[C@@]12CO[C@@H]1C[C@H](O)[C@@]1(C)C(=O)[C@H](O)C3=C(C)[C@@H](OC(=O)[C@H](O)[C@@H](NC(=O)OC(C)(C)C)c4ccccc4)C[C@@](O)([C@@H](OC(=O)c4ccccc4)[C@H]21)C3(C)C [Docetaxel, docetaxel]
#CR (5.8 mg/kg i.v./q4dx3): 0/0/0
#PR (5.8 mg/kg i.v./q4dx3): 0/0/0
#TFS (5.8 mg/kg i.v./q4dx3): 0/0/0
Drug Deaths Total (5.8 mg/kg i.v./q4dx3): 0
Weight Nadir % (5.8 mg/kg i.v./q4dx3): −2%
Weight Nadir Day (5.8 mg/kg i.v./q4dx3): 3
Tumor Volume Data (Day 28) Median (5.8 mg/kg i.v./q4dx3, day 28): 598 mm^3
ΔT/ΔC % (5.8 mg/kg i.v./q4dx3, day 28): 42.9%
MTTE [1]: 41 days
T-C [1]: 9 days
ΔT/ΔC (5.8 mg/kg q4d×3 IV, day 28): 42.9%
tumor growth delay (T-C) (5.8 mg/kg q4d×3 IV, volume endpoint 1600 mm^3): 9 days
tumor volume changes from baseline, Median +/− MAD (5.8 mg/kg, DAY 3): 22.5 +/− 22.5
tumor volume changes from baseline, Median +/− MAD (5.8 mg/kg, DAY 8): 95 +/− 22.5
tumor volume changes from baseline, Median +/− MAD (5.8 mg/kg, DAY 11): 117.5 +/− 45
tumor volume changes from baseline, Median +/− MAD (5.8 mg/kg, DAY 14): 189 +/− 60.5
tumor volume changes from baseline, Median +/− MAD (5.8 mg/kg, DAY 17): 242.5 +/− 110
tumor volume changes from baseline, Median +/− MAD (5.8 mg/kg, DAY 21): 278.5 +/− 142
tumor volume changes from baseline, Median +/− MAD (5.8 mg/kg, DAY 24): 435 +/− 159
tumor volume changes from baseline, Median +/− MAD (5.8 mg/kg, DAY 28): 487 +/− 231.5
tumor volume changes from baseline, Median +/− MAD (5.8 mg/kg, DAY 31): 598 +/− 204
tumor volume changes from baseline, Median +/− MAD (5.8 mg/kg, DAY 35): 813 +/− 367
tumor volume changes from baseline, Median +/− MAD (5.8 mg/kg, DAY 38): 960 +/− 388
tumor volume changes from baseline, Median +/− MAD (5.8 mg/kg, DAY 42): 1032 +/− 326
tumor volume changes from baseline, Median +/− MAD (5.8 mg/kg, DAY 46): 1340 +/− 384
#CR (9.3 mg/kg i.v./q4dx3): 0
#PR (9.3 mg/kg i.v./q4dx3): 1
#TFS (9.3 mg/kg i.v./q4dx3): 0
Drug Deaths Total (9.3 mg/kg i.v./q4dx3): 0*
Weight Nadir % (9.3 mg/kg i.v./q4dx3): −3%
Weight Nadir Day (9.3 mg/kg i.v./q4dx3): 17
Tumor Volume Data (Day 28) Median (9.3 mg/kg i.v./q4dx3, day 28): 442 mm^3
ΔT/ΔC % (9.3 mg/kg i.v./q4dx3, day 28): 27.4%
MTTE [2]: 49 days
T-C [2]: 17 days
tumor volume changes from baseline, Median +/− MAD (9.3 mg/kg, DAY 3): 56.5 +/− 26.5
tumor volume changes from baseline, Median +/− MAD (9.3 mg/kg, DAY 8): 85.5 +/− 27
tumor volume changes from baseline, Median +/− MAD (9.3 mg/kg, DAY 11): 73 +/− 42.5
tumor volume changes from baseline, Median +/− MAD (9.3 mg/kg, DAY 14): 85.5 +/− 34.5
tumor volume changes from baseline, Median +/− MAD (9.3 mg/kg, DAY 17): 117.5 +/− 51.5
tumor volume changes from baseline, Median +/− MAD (9.3 mg/kg, DAY 21): 140.5 +/− 52
tumor volume changes from baseline, Median +/− MAD (9.3 mg/kg, DAY 24): 239 +/− 94.5
tumor volume changes from baseline, Median +/− MAD (9.3 mg/kg, DAY 28): 311 +/− 75.5
tumor volume changes from baseline, Median +/− MAD (9.3 mg/kg, DAY 31): 390 +/− 90.5
tumor volume changes from baseline, Median +/− MAD (9.3 mg/kg, DAY 35): 545 +/− 52
tumor volume changes from baseline, Median +/− MAD (9.3 mg/kg, DAY 38): 677 +/− 118
tumor volume changes from baseline, Median +/− MAD (9.3 mg/kg, DAY 42): 827.5 +/− 293.5
tumor volume changes from baseline, Median +/− MAD (9.3 mg/kg, DAY 46): 1187 +/− 347.5
#CR (15 mg/kg i.v./q4dx3): 0/0/0
#PR (15 mg/kg i.v./q4dx3): 0/0/0
#TFS (15 mg/kg i.v./q4dx3): 0/0/0
Drug Deaths Total (15 mg/kg i.v./q4dx3): 0
Weight Nadir % (15 mg/kg i.v./q4dx3): −8%
Weight Nadir Day (15 mg/kg i.v./q4dx3): 17
Tumor Volume Data (Day 28) Median (15 mg/kg i.v./q4dx3, day 28): 178 mm^3
ΔT/ΔC % (15 mg/kg i.v./q4dx3, day 28): 3.2%
MTTE [3]: >59 days
T-C [3]: >28 days
numbers of PR (15 mg/kg q4d×3 IV): 0/10
tumor volume changes from baseline, Median +/− MAD (15 mg/kg, DAY 3): 26 +/− 26
tumor volume changes from baseline, Median +/− MAD (15 mg/kg, DAY 8): 26 +/− 26
tumor volume changes from baseline, Median +/− MAD (15 mg/kg, DAY 11): 13 +/− 16.5
tumor volume changes from baseline, Median +/− MAD (15 mg/kg, DAY 14): 13 +/− 16.5
tumor volume changes from baseline, Median +/− MAD (15 mg/kg, DAY 17): 13 +/− 16.5
tumor volume changes from baseline, Median +/− MAD (15 mg/kg, DAY 21): 0 +/− 19
tumor volume changes from baseline, Median +/− MAD (15 mg/kg, DAY 24): 22.5 +/− 23.5
tumor volume changes from baseline, Median +/− MAD (15 mg/kg, DAY 28): 36.5 +/− 35.5
tumor volume changes from baseline, Median +/− MAD (15 mg/kg, DAY 31): 42.5 +/− 29.5
tumor volume changes from baseline, Median +/− MAD (15 mg/kg, DAY 35): 61 +/− 61
tumor volume changes from baseline, Median +/− MAD (15 mg/kg, DAY 38): 61 +/− 81
tumor volume changes from baseline, Median +/− MAD (15 mg/kg, DAY 42): 107 +/− 90
tumor volume changes from baseline, Median +/− MAD (15 mg/kg, DAY 46): 155 +/− 153
#CR (24.2 mg/kg i.v./q4dx3): 0
#PR (24.2 mg/kg i.v./q4dx3): 1
#TFS (24.2 mg/kg i.v./q4dx3): 0
Drug Deaths Total (24.2 mg/kg i.v./q4dx3): 0
Weight Nadir % (24.2 mg/kg i.v./q4dx3): −13%
Weight Nadir Day (24.2 mg/kg i.v./q4dx3): 17
ΔT/ΔC % (24.2 mg/kg i.v./q4dx3, day 28): 0%
MTTE [4]: >59 days
T-C [4]: >28 days
numbers of PR (24.2 mg/kg q4d×3 IV): 1/10
tumor volume changes from baseline, Median +/− MAD (24.2 mg/kg, DAY 3): 29.5 +/− 13.5
tumor volume changes from baseline, Median +/− MAD (24.2 mg/kg, DAY 8): 22.5 +/− 22.5
tumor volume changes from baseline, Median +/− MAD (24.2 mg/kg, DAY 11): 0 +/− 22
tumor volume changes from baseline, Median +/− MAD (24.2 mg/kg, DAY 14): −9.5 +/− 35
tumor volume changes from baseline, Median +/− MAD (24.2 mg/kg, DAY 17): −9.5 +/− 26
tumor volume changes from baseline, Median +/− MAD (24.2 mg/kg, DAY 21): −9.5 +/− 26
tumor volume changes from baseline, Median +/− MAD (24.2 mg/kg, DAY 24): 0 +/− 0
tumor volume changes from baseline, Median +/− MAD (24.2 mg/kg, DAY 28): 0 +/− 9.5
tumor volume changes from baseline, Median +/− MAD (24.2 mg/kg, DAY 31): 0 +/− 9.5
tumor volume changes from baseline, Median +/− MAD (24.2 mg/kg, DAY 35): 0 +/− 9.5
tumor volume changes from baseline, Median +/− MAD (24.2 mg/kg, DAY 38): 0 +/− 9.5
tumor volume changes from baseline, Median +/− MAD (24.2 mg/kg, DAY 42): 0 +/− 9.5
tumor volume changes from baseline, Median +/− MAD (24.2 mg/kg, DAY 46): 50.5 +/− 47.5

From US20140350273A1, “PEDIATRIC USES OF CABAZITAXEL” (AVENTIS PHARMA S.A., priority 2012, published 2014)
